Values joined by “and” are separate entries in the source; they are usually repeats but may differ in a detail not shown here. Equal entries are not always repeated.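 Interpolation was linear, between the two tested concentrations surrounding the appropriate level; five concentrations were tested over 48 hours in 96-well plates. GI50 marks 50% less growth. TGI marks complete inhibition of growth.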
Legend:
Experiment in all cases: inhibition of tumour cell growth, NCI panel, 48 h
UO-31 renal = test system: UO-31 renal
LOX IMVI melanoma = test system: LOX IMVI melanoma
U251 CNS = test system: U251 CNS
PC-3 prostate = test system: PC-3 prostate
T-47D breast = test system: T-47D breast
NCI/ADR-RES ovarian = test system: NCI/ADR-RES ovarian
NCI-H226 lung = test system: NCI-H226 lung
ACHN renal = test system: ACHN renal

CCc1ccc(CCC(=O)Nc2ncc(Cc3ccccc3)s2)o1
GI50 (UO-31 renal): 3.19 µM
TGI (UO-31 renal): > 100 µM
GI50 (LOX IMVI melanoma): 6 µM
TGI (LOX IMVI melanoma): > 100 µM
GI50 (U251 CNS): 3.06 µM
TGI (U251 CNS): > 100 µM
GI50 (PC-3 prostate): 2.74 µM
TGI (PC-3 prostate): > 100 µM
GI50 (T-47D breast): 2.6 µM
TGI (T-47D breast): > 100 µM
GI50 (NCI/ADR-RES ovarian): 2.39 µM
TGI (NCI/ADR-RES ovarian): > 100 µM
GI50 (NCI-H226 lung): 53.2 µM
TGI (NCI-H226 lung): > 100 µM
GI50 (ACHN renal): 5.68 µM
TGI (ACHN renal): > 100 µM

CCN(CC)CCCC(C)Nc1cnc(C(=O)Nc2cc(F)cc3cccnc23)cn1 (stereo not given)
GI50 (UO-31 renal): 4.12 µM and 0.933 µM
TGI (UO-31 renal): 17.1 µM and 2.23 µM
GI50 (LOX IMVI melanoma): 3.32 µM and 0.882 µM
TGI (LOX IMVI melanoma): 11.3 µM and 2.28 µM
GI50 (U251 CNS): 5.72 µM and 1.56 µM
TGI (U251 CNS): 18.4 µM and 3.01 µM
GI50 (PC-3 prostate): 3.55 µM and 0.614 µM
TGI (PC-3 prostate): 15.3 µM and 2.24 µM
GI50 (T-47D breast): 0.759 µM and 0.505 µM
TGI (T-47D breast): 20.2 µM and 5.18 µM
GI50 (NCI/ADR-RES ovarian): 7.27 µM and 2.6 µM
TGI (NCI/ADR-RES ovarian): 21.6 µM and 11.2 µM
GI50 (NCI-H226 lung): 4.71 µM and 1.99 µM
TGI (NCI-H226 lung): 18.5 µM and 4.13 µM
GI50 (ACHN renal): 2.81 µM and 0.683 µM
TGI (ACHN renal): 9.61 µM and 1.96 µM

CCc1nc2ccc(Cc3ccc(C(=O)NO)cc3)cc2c(=O)n1CCc1ccccc1
GI50 (LOX IMVI melanoma): 1.16 µM
TGI (LOX IMVI melanoma): 2.5 µM
GI50 (U251 CNS): 0.963 µM
TGI (U251 CNS): 2.28 µM
GI50 (T-47D breast): 0.809 µM
TGI (T-47D breast): 5.41 µM
GI50 (NCI/ADR-RES ovarian): 0.37 µM
TGI (NCI/ADR-RES ovarian): 4.59 µM
GI50 (NCI-H226 lung): 1.24 µM
TGI (NCI-H226 lung): 3.05 µM

c1cncc(CNc2ccccc2-c2nnc(Nc3ccc4c(c3)OCCO4)o2)c1
GI50 (UO-31 renal): 4.69 µM
TGI (UO-31 renal): > 100 µM
GI50 (LOX IMVI melanoma): 0.183 µM
TGI (LOX IMVI melanoma): > 100 µM
GI50 (U251 CNS): 0.157 µM
TGI (U251 CNS): > 100 µM
GI50 (PC-3 prostate): 0.128 µM
TGI (PC-3 prostate): > 100 µM
GI50 (T-47D breast): 3.57 µM
TGI (T-47D breast): 60.2 µM
GI50 (NCI/ADR-RES ovarian): 0.0557 µM
TGI (NCI/ADR-RES ovarian): > 100 µM
GI50 (NCI-H226 lung): 0.153 µM
TGI (NCI-H226 lung): 0.81 µM
GI50 (ACHN renal): 1.08 µM
TGI (ACHN renal): > 100 µM

CN(C)CC#Cc1cccc(C(=O)c2cnn(-c3ccc(F)cc3)c2N)c1
GI50 (UO-31 renal): > 25 µM
TGI (UO-31 renal): > 25 µM
GI50 (LOX IMVI melanoma): > 25 µM
TGI (LOX IMVI melanoma): > 25 µM
GI50 (U251 CNS): > 25 µM
TGI (U251 CNS): > 25 µM
GI50 (PC-3 prostate): > 25 µM
TGI (PC-3 prostate): > 25 µM
GI50 (T-47D breast): 11.3 µM
TGI (T-47D breast): > 25 µM
GI50 (NCI/ADR-RES ovarian): > 25 µM
TGI (NCI/ADR-RES ovarian): > 25 µM
GI50 (NCI-H226 lung): > 21.9 µM
TGI (NCI-H226 lung): > 25 µM
GI50 (ACHN renal): > 25 µM
TGI (ACHN renal): > 25 µM

c1ccc2[nH]c(-c3ccc(OCCCCCOc4ccc(-c5nc6ccccc6[nH]5)cc4)cc3)nc2c1
GI50 (UO-31 renal): 1.25 µM
TGI (UO-31 renal): 3.67 µM
GI50 (LOX IMVI melanoma): 1.22 µM
TGI (LOX IMVI melanoma): 2.57 µM
GI50 (U251 CNS): 1.91 µM
TGI (U251 CNS): 4.17 µM
GI50 (PC-3 prostate): 2.76 µM
TGI (PC-3 prostate): 8.05 µM
GI50 (T-47D breast): 0.822 µM
TGI (T-47D breast): 2.13 µM
GI50 (NCI/ADR-RES ovarian): 2.28 µM
TGI (NCI/ADR-RES ovarian): 7.2 µM
GI50 (NCI-H226 lung): 21.3 µM
TGI (NCI-H226 lung): 55.9 µM
GI50 (ACHN renal): 3.29 µM
TGI (ACHN renal): 11.9 µM

CO/N=C1/NC(=O)/C(=C/c2ccc3ncccc3c2)S1
GI50 (UO-31 renal): 4.99 µM
TGI (UO-31 renal): > 22.7 µM
GI50 (LOX IMVI melanoma): 12.8 µM
TGI (LOX IMVI melanoma): > 25 µM
GI50 (U251 CNS): 9.39 µM
TGI (U251 CNS): > 25 µM
GI50 (PC-3 prostate): 11.7 µM
TGI (PC-3 prostate): > 25 µM
GI50 (T-47D breast): 4.46 µM
TGI (T-47D breast): > 20.2 µM
GI50 (NCI/ADR-RES ovarian): > 25 µM
TGI (NCI/ADR-RES ovarian): > 25 µM
GI50 (NCI-H226 lung): 6.5 µM
TGI (NCI-H226 lung): > 25 µM
GI50 (ACHN renal): 10.6 µM
TGI (ACHN renal): > 25 µM

Cc1ccc(NS(=O)(=O)c2cc(C)ccc2C)cc1
GI50 (UO-31 renal): 12.1 µM
TGI (UO-31 renal): 72 µM
GI50 (LOX IMVI melanoma): 5.13 µM
TGI (LOX IMVI melanoma): 22.5 µM
GI50 (U251 CNS): 4.25 µM
TGI (U251 CNS): 23.8 µM
GI50 (PC-3 prostate): 11.4 µM
TGI (PC-3 prostate): 66.5 µM
GI50 (T-47D breast): 6.09 µM
TGI (T-47D breast): > 100 µM
GI50 (NCI/ADR-RES ovarian): 1.38 µM
TGI (NCI/ADR-RES ovarian): 8.95 µM
GI50 (NCI-H226 lung): 15.3 µM
TGI (NCI-H226 lung): 70.4 µM
GI50 (ACHN renal): 12.7 µM
TGI (ACHN renal): 90 µM

NC1CCC[C@@H](O)[C@H]1O (stereo not given in full)
TGI (UO-31 renal): > 100 µM
TGI (LOX IMVI melanoma): > 100 µM
TGI (U251 CNS): > 100 µM
TGI (PC-3 prostate): > 100 µM
TGI (T-47D breast): > 100 µM
TGI (NCI/ADR-RES ovarian): > 100 µM
TGI (NCI-H226 lung): > 100 µM
TGI (ACHN renal): > 100 µM

CCS(=O)(=O)c1ccc(OC)c(Nc2nccc(N(C)c3ccc4c(C)[nH]nc4c3)n2)c1
GI50 (UO-31 renal): 2.05 µM
TGI (UO-31 renal): 10.9 µM
GI50 (LOX IMVI melanoma): 4.29 µM
TGI (LOX IMVI melanoma): 12 µM
GI50 (U251 CNS): 7.28 µM
TGI (U251 CNS): > 25 µM
GI50 (PC-3 prostate): 5.46 µM
TGI (PC-3 prostate): 22.1 µM
GI50 (T-47D breast): 4.77 µM
TGI (T-47D breast): 21.9 µM
GI50 (NCI/ADR-RES ovarian): 6.32 µM
TGI (NCI/ADR-RES ovarian): > 19.4 µM
GI50 (NCI-H226 lung): 1.85 µM
TGI (NCI-H226 lung): > 21.1 µM
GI50 (ACHN renal): 5.95 µM
TGI (ACHN renal): > 24.1 µM

Clc1cc(Cl)cc(N2N=C(c3cccc(Nc4ccncc4)c3)CC2c2ccc(Br)cc2)c1 (stereo not given)
GI50 (UO-31 renal): 1.39 µM
TGI (UO-31 renal): 2.69 µM
GI50 (LOX IMVI melanoma): 1.7 µM
TGI (LOX IMVI melanoma): 3.06 µM
GI50 (PC-3 prostate): 1.66 µM
TGI (PC-3 prostate): 3.31 µM
GI50 (NCI/ADR-RES ovarian): 1.91 µM
TGI (NCI/ADR-RES ovarian): 3.86 µM
GI50 (ACHN renal): 1.66 µM
TGI (ACHN renal): 3.02 µM

CN(C)CCNC(=O)c1cc([N+](=O)[O-])ccn1
TGI (UO-31 renal): > 100 µM
TGI (LOX IMVI melanoma): 96.9 µM
TGI (U251 CNS): 92.8 µM
TGI (PC-3 prostate): 61.4 µM
TGI (T-47D breast): 78.1 µM
TGI (NCI-H226 lung): > 100 µM
TGI (ACHN renal): > 100 µM

Cc1cc(N/N=C/c2nc(-c3ccccc3)oc2C)c2cc(Cl)ccc2n1
GI50 (UO-31 renal): 1.61 µM
TGI (UO-31 renal): 3.07 µM
GI50 (U251 CNS): 1.78 µM
TGI (U251 CNS): 3.34 µM
GI50 (PC-3 prostate): 1.8 µM
TGI (PC-3 prostate): 3.55 µM
GI50 (T-47D breast): 2.02 µM
TGI (T-47D breast): 4.22 µM
GI50 (NCI/ADR-RES ovarian): 1.84 µM
TGI (NCI/ADR-RES ovarian): 3.95 µM
GI50 (NCI-H226 lung): 2.38 µM
TGI (NCI-H226 lung): 6.88 µM
GI50 (ACHN renal): 1.74 µM
TGI (ACHN renal): 3.14 µM

Cc1ccc2c(=O)[nH]sc2c1
TGI (LOX IMVI melanoma): 32.9 µM
TGI (U251 CNS): 27.9 µM
TGI (PC-3 prostate): 29.1 µM
TGI (T-47D breast): 41.8 µM
TGI (NCI/ADR-RES ovarian): 55.8 µM
TGI (NCI-H226 lung): 45.5 µM
TGI (ACHN renal): 21.6 µM

Cc1nn2c(/C=C3/C(=O)Nc4ccccc43)c(-c3ccc(Cl)cc3)nc2s1
GI50 (UO-31 renal): > 50 µM
TGI (UO-31 renal): > 50 µM
GI50 (LOX IMVI melanoma): 10.6 µM
TGI (LOX IMVI melanoma): 21.4 µM
GI50 (U251 CNS): 9.73 µM
TGI (U251 CNS): 18.7 µM
GI50 (PC-3 prostate): 12.2 µM
TGI (PC-3 prostate): 32.2 µM
GI50 (NCI-H226 lung): 10.1 µM
TGI (NCI-H226 lung): 27.5 µM
GI50 (ACHN renal): 9.86 µM
TGI (ACHN renal): 20 µM

Cc1cc(S(=O)(=O)NC#N)c(S/C(=N\Nc2ccc([N+](=O)[O-])cc2)c2ccccc2)cc1Cl
GI50 (UO-31 renal): 15.5 µM
TGI (UO-31 renal): 36.7 µM
GI50 (LOX IMVI melanoma): 15.4 µM
TGI (LOX IMVI melanoma): 28.8 µM
GI50 (U251 CNS): 14.9 µM
TGI (U251 CNS): 28.1 µM
GI50 (PC-3 prostate): 21.5 µM
TGI (PC-3 prostate): 57.1 µM
GI50 (T-47D breast): > 100 µM
TGI (T-47D breast): > 100 µM
GI50 (NCI-H226 lung): 16.3 µM
TGI (NCI-H226 lung): 33.1 µM
GI50 (ACHN renal): 18 µM
TGI (ACHN renal): 41.5 µM
